Measurements published in PubChem BioAssay AID2060512 (Molecular Pharmacology Branch, DTP, NCI, 2025).

System: 186277-243-T-J2-PDC complex spheroid viability
Assay: Anticancer human tumor 186277-243-T-J2-PDC patient-derived colon adenocarcinoma cell line growth inhibition [GQUAD]
Details: for IC50: curve of first compound; for viability, T/C: stronger effect = lower value
Procedure, shortened: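 Tumor cells were grown as complex spheroids with HUVEC endothelial cells and mesenchymal stem cells as stroma. G-quadruplex stabilizers were combined with targeted agents over half-log dilutions from near the clinical Cmax, or from 10 microM.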

[1] = second compound 0.0316 µM, first compound 0.0316 µM
[2] = second compound 0.0316 µM, first compound 0.1 µM
[3] = second compound 0.0316 µM, first compound 0.316 µM
[4] = second compound 0.0316 µM, first compound 1 µM
[5] = second compound 0.0316 µM, first compound 3.16 µM
[6] = second compound 0.0316 µM, first compound 10 µM
[7] = second compound 0.1 µM, first compound 0.0316 µM
[8] = second compound 0.1 µM, first compound 0.1 µM
[9] = second compound 0.1 µM, first compound 0.316 µM
[10] = second compound 0.1 µM, first compound 1 µM
[11] = second compound 0.1 µM, first compound 3.16 µM
[12] = second compound 0.1 µM, first compound 10 µM
[13] = second compound 0.316 µM, first compound 0.0316 µM
[14] = second compound 0.316 µM, first compound 0.1 µM
[15] = second compound 0.316 µM, first compound 0.316 µM
[16] = second compound 0.316 µM, first compound 1 µM
[17] = second compound 0.316 µM, first compound 3.16 µM
[18] = second compound 0.316 µM, first compound 10 µM
[19] = second compound 1 µM, first compound 0.0316 µM
[20] = second compound 1 µM, first compound 0.1 µM
[21] = second compound 1 µM, first compound 0.316 µM
[22] = second compound 1 µM, first compound 1 µM
[23] = second compound 1 µM, first compound 3.16 µM
[24] = second compound 1 µM, first compound 10 µM
[25] = second compound 3.16 µM, first compound 0.0316 µM
[26] = second compound 3.16 µM, first compound 0.1 µM
[27] = second compound 3.16 µM, first compound 0.316 µM
[28] = second compound 3.16 µM, first compound 1 µM
[29] = second compound 3.16 µM, first compound 3.16 µM
[30] = second compound 3.16 µM, first compound 10 µM
[31] = second compound 10 µM, first compound 0.0316 µM
[32] = second compound 10 µM, first compound 0.1 µM
[33] = second compound 10 µM, first compound 0.316 µM
[34] = second compound 10 µM, first compound 1 µM
[35] = second compound 10 µM, first compound 3.16 µM
[36] = second compound 10 µM, first compound 10 µM
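Also: spheroids exposed to drugs for 7 days.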
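For viability, T/C in this document: 100% = DMSO vehicle control viability.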

**Q.** Which IC50 (second compound 0.0316 µM) does the source give for `CC1COCCN1c1cc(C2(O)CC3CCC(C2)O3)c2cnn(-c3ccn[nH]3)c2n1` (stereo unspecified) + CN(C)c1ccc(Nc2c3ccc(NC(=O)CCN4CCCC4)cc3nc3cc(NC(=O)CCN4CCCC4)ccc23)cc1 here?
**A.** 32.6 nM

**Q.** And the IC50 (second compound 0.1 µM)?
**A.** 33.1 nM

**Q.** And the IC50 (second compound 0.316 µM)?
**A.** 34.7 nM

**Q.** And the IC50 (second compound 1 µM)?
**A.** < 31.6 nM

**Q.** And the IC50 (second compound 3.16 µM)?
**A.** < 31.6 nM

**Q.** And the IC50 (second compound 10 µM)?
**A.** < 31.6 nM

**Q.** And the viability, T/C [1]?
**A.** 51.2%

**Q.** What about the viability, T/C [2] of the same molecule?
**A.** 8.79%

**Q.** What about the viability, T/C [3] of the same molecule?
**A.** 6.01%

**Q.** What about the viability, T/C [4] of the same molecule?
**A.** 4%

**Q.** And the viability, T/C [5]?
**A.** 5.01%

**Q.** What about the viability, T/C [6] of the same molecule?
**A.** 3.88%

**Q.** And the viability, T/C [7]?
**A.** 51.8%

**Q.** And the viability, T/C [8]?
**A.** 12%

**Q.** What about the viability, T/C [9] of the same molecule?
**A.** 7.24%

**Q.** And the viability, T/C [10]?
**A.** 3.82%

**Q.** What about the viability, T/C [11] of the same molecule?
**A.** 4.81%

**Q.** What about the viability, T/C [12] of the same molecule?
**A.** 3.87%

**Q.** What about the viability, T/C [13] of the same molecule?
**A.** 53.7%

**Q.** And the viability, T/C [14]?
**A.** 8.92%

**Q.** What about the viability, T/C [15] of the same molecule?
**A.** 4.46%

**Q.** What about the viability, T/C [16] of the same molecule?
**A.** 3.99%

**Q.** What about the viability, T/C [17] of the same molecule?
**A.** 5.18%

**Q.** And the viability, T/C [18]?
**A.** 3.41%

**Q.** And the viability, T/C [19]?
**A.** 42.9%

**Q.** And the viability, T/C [20]?
**A.** 9.66%

**Q.** And the viability, T/C [21]?
**A.** 5.45%

**Q.** And the viability, T/C [22]?
**A.** 4.14%

**Q.** And the viability, T/C [23]?
**A.** 5.22%

**Q.** What about the viability, T/C [24] of the same molecule?
**A.** 3.81%

**Q.** And the viability, T/C [25]?
**A.** 47%

**Q.** And the viability, T/C [26]?
**A.** 12.8%

**Q.** What about the viability, T/C [27] of the same molecule?
**A.** 5.73%

**Q.** And the viability, T/C [28]?
**A.** 3.69%

**Q.** And the viability, T/C [29]?
**A.** 4.72%

**Q.** What about the viability, T/C [30] of the same molecule?
**A.** 3.34%

**Q.** What about the viability, T/C [31] of the same molecule?
**A.** 46.5%

**Q.** What about the viability, T/C [32] of the same molecule?
**A.** 11.9%

**Q.** And the viability, T/C [33]?
**A.** 6.88%

**Q.** And the viability, T/C [34]?
**A.** 3%

**Q.** And the viability, T/C [35]?
**A.** 3.63%

**Q.** And the viability, T/C [36]?
**A.** 2.56%

**Q.** Which IC50 (second compound 0.0316 µM) does the source give for `CC1COCCN1c1cc(C2(S(C)(=N)=O)CC2)nc(-c2ccnc3[nH]ccc23)n1` (stereo unspecified) + CN(C)c1ccc(Nc2c3ccc(NC(=O)CCN4CCCC4)cc3nc3cc(NC(=O)CCN4CCCC4)ccc23)cc1 here?
**A.** 803 nM

**Q.** And the IC50 (second compound 0.1 µM)?
**A.** 749 nM

**Q.** What about the IC50 (second compound 0.316 µM) of the same molecule?
**A.** 1350 nM

**Q.** And the IC50 (second compound 1 µM)?
**A.** 972 nM

**Q.** And the IC50 (second compound 3.16 µM)?
**A.** 986 nM

**Q.** And the IC50 (second compound 10 µM)?
**A.** 840 nM

**Q.** What about the viability, T/C [1] of the same molecule?
**A.** 95.5%

**Q.** And the viability, T/C [2]?
**A.** 100%

**Q.** And the viability, T/C [3]?
**A.** 117%

**Q.** What about the viability, T/C [4] of the same molecule?
**A.** 37.2%

**Q.** What about the viability, T/C [5] of the same molecule?
**A.** 8.85%

**Q.** And the viability, T/C [6]?
**A.** 6.06%

**Q.** And the viability, T/C [7]?
**A.** 105%

**Q.** What about the viability, T/C [8] of the same molecule?
**A.** 102%

**Q.** And the viability, T/C [9]?
**A.** 89.4%

**Q.** What about the viability, T/C [10] of the same molecule?
**A.** 37%

**Q.** And the viability, T/C [11]?
**A.** 7.6%

**Q.** And the viability, T/C [12]?
**A.** 5.85%

**Q.** What about the viability, T/C [13] of the same molecule?
**A.** 85.2%

**Q.** And the viability, T/C [14]?
**A.** 99.5%

**Q.** What about the viability, T/C [15] of the same molecule?
**A.** 92.7%

**Q.** And the viability, T/C [16]?
**A.** 65.2%

**Q.** And the viability, T/C [17]?
**A.** 7.48%

**Q.** What about the viability, T/C [18] of the same molecule?
**A.** 5.05%

**Q.** And the viability, T/C [19]?
**A.** 91%

**Q.** And the viability, T/C [20]?
**A.** 89.8%

**Q.** What about the viability, T/C [21] of the same molecule?
**A.** 96.2%

**Q.** And the viability, T/C [22]?
**A.** 48.9%

**Q.** What about the viability, T/C [23] of the same molecule?
**A.** 8.32%

**Q.** And the viability, T/C [24]?
**A.** 5.51%

**Q.** And the viability, T/C [25]?
**A.** 91%

**Q.** And the viability, T/C [26]?
**A.** 103%

**Q.** And the viability, T/C [27]?
**A.** 98.8%

**Q.** What about the viability, T/C [28] of the same molecule?
**A.** 49.4%

**Q.** What about the viability, T/C [29] of the same molecule?
**A.** 7.66%

**Q.** What about the viability, T/C [30] of the same molecule?
**A.** 5.17%

**Q.** And the viability, T/C [31]?
**A.** 85.3%

**Q.** What about the viability, T/C [32] of the same molecule?
**A.** 94%

**Q.** And the viability, T/C [33]?
**A.** 110%

**Q.** What about the viability, T/C [34] of the same molecule?
**A.** 41.7%

**Q.** What about the viability, T/C [35] of the same molecule?
**A.** 9.87%

**Q.** What about the viability, T/C [36] of the same molecule?
**A.** 5.6%

**Q.** What does the source list for `COc1ccc([C@@H](O)c2cc(-c3ncnc4cc(N5CCOCC5)ccc34)c(F)cc2Cl)nn1` + CN(C)c1ccc(Nc2c3ccc(NC(=O)CCN4CCCC4)cc3nc3cc(NC(=O)CCN4CCCC4)ccc23)cc1?
**A.** IC50 (second compound 0.0316 µM): 3940 nM; IC50 (second compound 0.1 µM): 5030 nM; IC50 (second compound 0.316 µM): 4100 nM; IC50 (second compound 1 µM): 4450 nM; IC50 (second compound 3.16 µM): 4330 nM; IC50 (second compound 10 µM): 2310 nM; viability, T/C [1]: 102%; viability, T/C [2]: 102%; viability, T/C [3]: 117%; viability, T/C [4]: 75.9%; viability, T/C [5]: 59.8%; viability, T/C [6]: 26.2%; viability, T/C [7]: 112%; viability, T/C [8]: 96%; viability, T/C [9]: 90.1%; viability, T/C [10]: 85.2%; viability, T/C [11]: 73.3%; viability, T/C [12]: 22.5%; viability, T/C [13]: 95%; viability, T/C [14]: 92.7%; viability, T/C [15]: 104%; viability, T/C [16]: 82.3%; viability, T/C [17]: 57.8%; viability, T/C [18]: 26.3%; viability, T/C [19]: 86.5%; viability, T/C [20]: 93.2%; viability, T/C [21]: 89.2%; viability, T/C [22]: 110%; viability, T/C [23]: 62.8%; viability, T/C [24]: 19.9%; viability, T/C [25]: 98.3%; viability, T/C [26]: 87.5%; viability, T/C [27]: 108%; viability, T/C [28]: 96.4%; viability, T/C [29]: 61.1%; viability, T/C [30]: 20.4%; viability, T/C [31]: 91.3%; viability, T/C [32]: 88.1%; viability, T/C [33]: 111%; viability, T/C [34]: 81.1%; viability, T/C [35]: 37.9%; viability, T/C [36]: 7.76%
